Values of other authors in US20250235394A1, “BIOFILM-TARGETING NANOPARTICLES TO INCREASE THE […] OF FLUORIDE” (The Regents of The University of Michigan, priority 2021, published 2025).

Settings: solution containing 226 ppm F as CaF2

SMILES: [Ca+2].[F-].[F-] [CaF2, calcium fluoride]
- precipitation in solution: precipitation of CaF2 promptly occurs
